In assay [1] the target is T1, Peroxisome proliferator-activated receptor alpha (Homo sapiens, UniProt Q07869).
T1 sequence (Q07869 whole entry): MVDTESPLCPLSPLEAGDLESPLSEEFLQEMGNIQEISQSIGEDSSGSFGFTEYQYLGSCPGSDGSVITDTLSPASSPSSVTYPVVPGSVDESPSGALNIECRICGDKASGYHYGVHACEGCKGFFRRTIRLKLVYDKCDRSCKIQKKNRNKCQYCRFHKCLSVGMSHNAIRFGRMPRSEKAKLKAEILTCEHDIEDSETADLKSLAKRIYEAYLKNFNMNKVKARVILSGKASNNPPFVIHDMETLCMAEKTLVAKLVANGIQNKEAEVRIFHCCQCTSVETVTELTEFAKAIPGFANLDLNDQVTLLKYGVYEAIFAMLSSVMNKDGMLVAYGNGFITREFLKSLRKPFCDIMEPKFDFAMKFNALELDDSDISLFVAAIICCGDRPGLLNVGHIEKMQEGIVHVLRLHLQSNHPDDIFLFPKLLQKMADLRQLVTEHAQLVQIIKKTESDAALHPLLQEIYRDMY
Briefly: Transactivation of GAL4-tagged human PPARalpha LBD expressed in human HepG2 cells after 20 hrs by luciferase reporter gene assay. In kind it is cell-based. On the technique in general: A reporter such as luciferase makes a cellular process visible.

The target of assay [2] is T2, Peroxisome proliferator-activated receptor gamma (Homo sapiens, UniProt P37231).
T2 sequence (P37231 whole entry): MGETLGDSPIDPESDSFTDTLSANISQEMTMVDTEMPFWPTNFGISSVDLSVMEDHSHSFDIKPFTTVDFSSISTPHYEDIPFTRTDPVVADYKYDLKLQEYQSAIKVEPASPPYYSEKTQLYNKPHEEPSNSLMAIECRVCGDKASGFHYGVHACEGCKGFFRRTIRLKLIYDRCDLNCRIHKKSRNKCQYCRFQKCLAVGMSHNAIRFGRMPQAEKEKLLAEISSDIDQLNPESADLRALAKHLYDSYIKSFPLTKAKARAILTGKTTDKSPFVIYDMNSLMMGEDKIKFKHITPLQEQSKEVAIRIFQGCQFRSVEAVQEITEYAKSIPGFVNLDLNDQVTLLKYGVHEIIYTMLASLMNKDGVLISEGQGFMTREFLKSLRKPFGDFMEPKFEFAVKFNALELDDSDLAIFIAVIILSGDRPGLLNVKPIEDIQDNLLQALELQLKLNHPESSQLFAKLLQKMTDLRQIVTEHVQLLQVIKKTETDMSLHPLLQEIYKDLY
The experiment in a line: Transactivation of GAL4-tagged human PPARgamma LBD expressed in human HepG2 cells after 20 hrs by luciferase reporter gene assay. In kind it is cell-based.

In assay [3] the target is T3, Peroxisome proliferator-activated receptor alpha (Homo sapiens) (UniProt Q07869).
T3 sequence (whole entry): T1 sequence (Q07869 whole entry)
Briefly: Transactivation of GAL4-tagged human PPARalpha LBD expressed in human HepG2 cells after 20 hrs by luciferase reporter gene assay relative to Wy-14,643. The format is cell-based.

Assay [4] has as its target T4, Peroxisome proliferator-activated receptor gamma (Mus musculus) (UniProt P37238).
T4 sequence (whole entry): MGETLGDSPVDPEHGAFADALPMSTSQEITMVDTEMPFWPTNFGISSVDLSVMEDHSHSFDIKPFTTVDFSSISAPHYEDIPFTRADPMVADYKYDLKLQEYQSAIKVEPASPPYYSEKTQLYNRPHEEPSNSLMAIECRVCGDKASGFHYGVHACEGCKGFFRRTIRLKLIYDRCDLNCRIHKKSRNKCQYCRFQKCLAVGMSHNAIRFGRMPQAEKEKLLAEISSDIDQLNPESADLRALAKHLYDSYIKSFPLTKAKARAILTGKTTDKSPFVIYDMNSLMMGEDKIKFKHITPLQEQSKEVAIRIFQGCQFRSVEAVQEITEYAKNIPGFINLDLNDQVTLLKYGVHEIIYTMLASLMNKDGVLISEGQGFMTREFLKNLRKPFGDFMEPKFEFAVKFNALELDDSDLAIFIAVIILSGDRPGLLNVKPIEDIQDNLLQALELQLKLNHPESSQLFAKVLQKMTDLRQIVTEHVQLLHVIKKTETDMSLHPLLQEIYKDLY
Briefly: Agonist activity at PPARgamma in mouse 3T3-L1 cells assessed as increase in fabp4 RNA expression at 0.1 to 2.5 uM by qRT-PCR analysis. In kind it is cell-based. (In general: Quantitative PCR measures a nucleic acid by following its amplification.)

Assay [5] has as its target T4, Peroxisome proliferator-activated receptor gamma (Mus musculus). Briefly: Agonist activity at PPARgamma in mouse 3T3-L1 cells assessed as increase in adipoq RNA expression at 0.1 to 2.5 uM by qRT-PCR analysis. In kind it is cell-based.
For assay [6] the target is unchanged. The experiment in a line: Agonist activity at PPARgamma in mouse 3T3-L1 cells assessed as increase in glut4 RNA expression at 0.1 to 2.5 uM by qRT-PCR analysis. In kind it is cell-based.
Assay [7] has the same target. Briefly: Agonist activity at PPARgamma in mouse 3T3-L1 cells assessed as increase in CD36 RNA expression at 0.1 to 2.5 uM by qRT-PCR analysis. The format is cell-based.
The target is the same in assay [8]. Briefly: Agonist activity at PPARgamma in mouse 3T3-L1 cells assessed as increase in pck1 RNA expression at 0.1 to 2.5 uM by qRT-PCR analysis. The format is cell-based.
Assay [9] has the same target. Briefly: Agonist activity at PPARgamma in mouse 3T3-L1 cells assessed as increase in Gk RNA expression at 0.1 to 2.5 uM by qRT-PCR analysis. In kind it is cell-based.
For assay [10] the target is unchanged. Briefly: Agonist activity at PPARgamma in mouse 3T3-L1 cells assessed as increase in Idh3a RNA expression at 0.1 to 2.5 uM by qRT-PCR analysis. In kind it is cell-based.
Assay [11] shares this target. Briefly: Agonist activity at PPARgamma in mouse 3T3-L1 cells assessed as increase in Suclg1 RNA expression at 0.1 to 2.5 uM by qRT-PCR analysis. The format is cell-based.
Assay [12] has as its system 3T3-L1. Briefly: Induction of lipid accumulation in mouse 3T3L1 cells at 0.1 to 2.5 uM by Oil Red O staining-based assay. The format is functional, cell-based.
The target in assay [13] is T5, Peroxisome proliferator-activated receptor alpha (Mus musculus) (UniProt P23204).
T5 sequence (whole entry): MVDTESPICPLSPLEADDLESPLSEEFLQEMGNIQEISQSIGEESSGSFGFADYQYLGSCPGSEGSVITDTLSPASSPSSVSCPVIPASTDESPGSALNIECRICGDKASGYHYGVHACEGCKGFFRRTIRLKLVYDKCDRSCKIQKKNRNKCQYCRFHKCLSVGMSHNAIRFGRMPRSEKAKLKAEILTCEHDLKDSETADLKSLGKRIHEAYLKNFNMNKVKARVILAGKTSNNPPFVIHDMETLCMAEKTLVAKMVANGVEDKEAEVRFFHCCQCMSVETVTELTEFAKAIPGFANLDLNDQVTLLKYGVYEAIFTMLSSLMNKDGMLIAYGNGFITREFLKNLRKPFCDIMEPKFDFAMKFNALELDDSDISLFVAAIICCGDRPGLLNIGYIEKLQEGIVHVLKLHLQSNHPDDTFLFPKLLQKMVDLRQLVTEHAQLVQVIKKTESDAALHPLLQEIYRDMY
The experiment in a line: Agonist activity at PPARalpha in mouse Hepa1-6 cells assessed as increase in Acox1 RNA expression at 1 to 5 uM by qRT-PCR analysis. In kind it is cell-based.

The target of assay [14] is T5, Peroxisome proliferator-activated receptor alpha (Mus musculus). The experiment in a line: Agonist activity at PPARalpha in mouse Hepa1-6 cells assessed as increase in cpt1a RNA expression at 1 to 5 uM by qRT-PCR analysis. The format is cell-based.
For assay [15] the target is unchanged. Briefly: Agonist activity at PPARalpha in mouse Hepa1-6 cells assessed as increase in acadm RNA expression at 1 to 5 uM by qRT-PCR analysis. In kind it is cell-based.
Assay [16] addresses T6, Peroxisome proliferator-activated receptor gamma (Homo sapiens) (UniProt P37231).
T6 sequence (whole entry): T2 sequence (P37231 whole entry)
Briefly: Agonist activity at human PPARgamma LBD assessed as induction of recruitment of biotin-labeled PGC1alpha (130 to 154 residues) co-activator at >1 uM after 1 hr by TR-FRET assay.

The target in assay [17] is T2, Peroxisome proliferator-activated receptor gamma. The experiment in a line: Synergistic agonist activity at human PPARgamma LBD assessed as biotin-labeled PGC1alpha (130 to 154 residues) co-activator recruitment after 1 hr in presence of 0.37 uM rosiglitazone by TR-FRET assay.
Assay [18] shares this target. Briefly: Synergistic agonist activity at human PPARgamma LBD assessed as biotin-labeled PGC1alpha (130 to 154 residues) co-activator recruitment after 1 hr in presence of 1 uM rosiglitazone by TR-FRET assay. For orientation: TR-FRET usually uses a lanthanide donor and a delayed reading to cut background.
The target is the same in assay [19]. The experiment in a line: Synergistic agonist activity at human PPARgamma LBD assessed as biotin-labeled PGC1alpha (130 to 154 residues) co-activator recruitment after 1 hr in presence of 10 uM rosiglitazone by TR-FRET assay.
Assay [20] addresses T6, Peroxisome proliferator-activated receptor gamma (Homo sapiens). The experiment in a line: Transactivation of GAL4-tagged human PPARgamma LBD expressed in human HepG2 cells at 10^-9 to 10^-5 M after 20 hrs in presence of 5 uM PPARgamma antagonist GW9662 by luciferase reporter gene assay. In kind it is cell-based.
Assay [21] has the same target. Briefly: Binding affinity wild type apo form of PPARgamma (unknown origin) assessed as inhibition of CDK5/p35-mediated PPARgamma phosphorylation at ser273 at 0.1 to 10 uM after 3.5 hrs by ELISA relative to rosiglitazone.
Assay [22] deals with T4, Peroxisome proliferator-activated receptor gamma (Mus musculus). The experiment in a line: Agonist activity at PPARgamma in mouse 3T3-L1 cells accessed as increase in 2-deoxy-D-glucose uptake at 10 uM treated 17 hrs prior to insulin stimulation. The format is cell-based.
Assay [23] has the same target. Briefly: Synergistic agonist activity at PPARgamma in mouse 3T3-L1 cells accessed as increase in 2-deoxy-D-glucose uptake at 10 uM in presence of 0.3 uM rosiglitazone dosed 17 hrs prior to insulin stimulation.
For assay [24] the target is unchanged. The experiment in a line: Agonist activity at PPARgamma in mouse 3T3-L1 cells assessed as increase in fabp4 RNA expression at 5 to 10 uM by qRT-PCR analysis. The format is cell-based.
The target is the same in assay [25]. Briefly: Agonist activity at PPARgamma in mouse 3T3-L1 cells assessed as increase in adipoq RNA expression at 5 to 10 uM by qRT-PCR analysis. In kind it is cell-based.
For assay [26] the target is unchanged. The experiment in a line: Agonist activity at PPARgamma in mouse 3T3-L1 cells assessed as increase in glut4 RNA expression at 5 to 10 uM by qRT-PCR analysis. The format is cell-based.
The target is the same in assay [27]. The experiment in a line: Agonist activity at PPARgamma in mouse 3T3-L1 cells assessed as increase in pck1 RNA expression at 5 to 10 uM by qRT-PCR analysis. The format is cell-based.
Assay [28] has as its system 3T3-L1. Briefly: Induction of cells lipid accumulation in mouse 3T3L1 cells at 10 uM by Oil Red O staining-based assay. The format is functional, cell-based.
Assay [29] relates to 3T3-L1. Briefly: Induction of lipid accumulation in mouse 3T3L1 cells at 5 uM by Oil Red O staining-based assay. The format is functional, cell-based.
Assay [30] has as its system 3T3-L1. The experiment in a line: Induction of lipid accumulation in mouse 3T3L1 cells at 2 uM by Oil Red O staining-based assay. In kind it is functional, cell-based.

Calls of active or inactive are those of the source. No cut-off for these calls is given here.

Consider seven compounds from ChEMBL document CHEMBL4229563, “Identification of the First PPARα/γ Dual Agonist Able To Bind to Canonical and Alternative Sites of PPARγ and To Inhibit Its Cdk5-Mediated Phosphorylation” (J Med Chem, 2018).

As usually defined, the EC50 is the concentration needed to bring the measured effect to its halfway point. Consider `O=C(O)[C@H](Cc1ccccc1)Oc1ccc(-c2ccc(C[C@@H](Oc3ccc(-c4ccccc4)cc3)C(=O)O)cc2)cc1`, for which the EC50 in assay [1] (read-out: EC50) is 9.5 µM; in assay [2], 25 µM.

As for `O=C(O)[C@H](Cc1ccc(-c2ccc(O[C@H](Cc3ccccc3)C(=O)O)cc2)cc1)Oc1ccc(-c2ccccc2)cc1`, the figures for the EC50 in assay [1] (read-out: EC50) and in assay [2] were 27 µM and 18 µM, respectively.

Consider `O=C(O)[C@@H](Cc1ccc(-c2ccccc2)cc1)Oc1ccc(-c2ccccc2)cc1`, for which the EC50 came to 2.6 µM in [1] (read-out: EC50) and 0.89 µM in assay [2]. The Emax in assay [3] came to 25%.

For `O=C(O)[C@H](Cc1ccc(-c2ccccc2)cc1)Oc1ccc(-c2ccccc2)cc1`, the EC50 was found to be 1.05 µM in assay [1] (read-out: EC50); 0.12 µM in assay [2]; 3.69 µM in [17]; 2.85 µM in assay [18]; 9.78 µM in assay [19]. In assay [3], this compound displayed an Emax of 68%. The result in [4], in assay [5], in assay [6], in assay [7], in [8] and in assay [9] was inactive. Moreover, the result in [10], in [11], in assay [12], in [24], in [25] and in [26] was inactive. Moreover, the result in [27] and in assay [28] was inactive. For the same compound, the outcome in assay [13], in assay [14], in assay [15], in assay [16], in assay [20] and in assay [21] was Active. Also, the result in assay [22] and in assay [23] was Active.

As to `CN(CCOc1ccc(CC2SC(=O)NC2=O)cc1)c1ccccn1` (stereo unspecified), the outcome in assay [29] and in [30] was Active.

Regarding `O=C(O)[C@H](Cc1ccc(-c2ccc(O[C@@H](Cc3ccccc3)C(=O)O)cc2)cc1)Oc1ccc(-c2ccccc2)cc1`, the EC50 was 5.9 µM in [1] (read-out: EC50) and 9.8 µM in assay [2].

For `O=C(O)[C@@H](Cc1ccc(-c2ccc(O[C@H](Cc3ccccc3)C(=O)O)cc2)cc1)Oc1ccc(-c2ccccc2)cc1`, the EC50 result in assay [1] (hepg2) was “Not Active”; in assay [2] it was 15 µM.
